Reference: patent US10071095B2, “1,2,4-triazolo [4,3-A] pyridine derivatives and their use for the treatment of neurological and psychiatric disorders” (JANSSEN PHARMACEUTICALS, INC., priority 2009, dated 2018)

Columns and labels:
human mGluR2 receptor = target: T1, human mGluR2 receptor (Homo sapiens, UniProt Q14416); assay: [35S]GTPγS binding assay, positive allosteric modulation (GTPγS-PAM) in presence of EC20 glutamate; assay type: biochemical; settings: in presence of glutamate at EC20, average pEC50 if more experiments, ‡ means tested once; for EC50: read-out: GTPγS - hR2 PAM pEC50 (converted)
T1 construct: expressed in transfected cells; host or cells: CHO cells
Method in brief: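 Membranes from butyrate-stimulated CHO cells expressing human mGluR2 (7 μg protein) preincubated 30 min at 30°C with compound plus ~EC20 glutamate in HEPES pH 7.4, 100 mM NaCl, 3 mM MgCl2, 10 μM GDP, 10 μg/ml saponin. [35S]GTPγS (0.1 nM) incorporation over 30 min at 30°C measured by filtration and scintillation counting.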

[1] = test system: PCP-induced hyperlocomotion in male NMRI mice; assay: Phencyclidine (PCP)-induced hyperlocomotion in mice (video tracking); assay type: in vivo; settings: for Mice ED50 (mg/kg) PCP-Inh., estimated ED50 (footnote a) / Mice ED50 (mg/kg) PCP-Inh.: inhibition of PCP-induced hyperlocomotion; for Mice ED50 (mg/kg) PCP-Inh., estimated ED50 (footnote a): estimated ED50 values (n = 3 per dose; 4-fold separation between doses); for Mice ED50 (mg/kg) PCP-Inh.: dose at which 50% of the tested animals show the effect
Description: Motor Activity (Video Tracking)
Apparatus and General Procedure
On the day of experiments, the mice were brought into the procedural room. They were housed individually and allowed to acclimate for at least a half hour prior to testing. Although the studies were conducted during the light cycle (from 8:00 to 16:00 h), the procedure room was only sparsely lit (3 to 30 LUX) to provide better contrast for the video tracking. Local lighting was used for the injection procedures. During each trial, an individual mouse was placed in an open field arena (grey PVC cylinder with a height of 40 cm and a diameter of 22.5 cm). Each arena was placed on an infrared LED (8×8 LEDs)-lit box (white PVC squared box; 40×40 cm^2; height 12.5 cm). Each mouse was placed in the center of the arena and allowed to explore freely for 30 min. After each trial, the arena was cleaned with a wet and subsequently with a dry cleaning cloth. An infrared sensitive tube camera and a white light source (in arena: 4-7 LUX) were mounted to the ceiling above the observation chamber to record and input activity to a computer. Animal behavior was recorded and analyzed using the Noldus Ethovision XT Video Tracking System (Version 3.1; Noldus, Wageningen, The Netherlands). The total distance traveled (cm) was calculated. Data were then exported to data management systems for further analysis and reporting.
Phencyclidine (PCP)-Induced Hyperlocomotion in Mice
Test compound or solvent was administered at a pre-defined time before measurement (standard: 30 min) to male NMRI mice that were challenged with phencyclidine (PCP; 5 mg/kg, s.c.) 30 min before measurement. Activity was measured for a period of 30 min.

T1 sequence (Q14416 19-872): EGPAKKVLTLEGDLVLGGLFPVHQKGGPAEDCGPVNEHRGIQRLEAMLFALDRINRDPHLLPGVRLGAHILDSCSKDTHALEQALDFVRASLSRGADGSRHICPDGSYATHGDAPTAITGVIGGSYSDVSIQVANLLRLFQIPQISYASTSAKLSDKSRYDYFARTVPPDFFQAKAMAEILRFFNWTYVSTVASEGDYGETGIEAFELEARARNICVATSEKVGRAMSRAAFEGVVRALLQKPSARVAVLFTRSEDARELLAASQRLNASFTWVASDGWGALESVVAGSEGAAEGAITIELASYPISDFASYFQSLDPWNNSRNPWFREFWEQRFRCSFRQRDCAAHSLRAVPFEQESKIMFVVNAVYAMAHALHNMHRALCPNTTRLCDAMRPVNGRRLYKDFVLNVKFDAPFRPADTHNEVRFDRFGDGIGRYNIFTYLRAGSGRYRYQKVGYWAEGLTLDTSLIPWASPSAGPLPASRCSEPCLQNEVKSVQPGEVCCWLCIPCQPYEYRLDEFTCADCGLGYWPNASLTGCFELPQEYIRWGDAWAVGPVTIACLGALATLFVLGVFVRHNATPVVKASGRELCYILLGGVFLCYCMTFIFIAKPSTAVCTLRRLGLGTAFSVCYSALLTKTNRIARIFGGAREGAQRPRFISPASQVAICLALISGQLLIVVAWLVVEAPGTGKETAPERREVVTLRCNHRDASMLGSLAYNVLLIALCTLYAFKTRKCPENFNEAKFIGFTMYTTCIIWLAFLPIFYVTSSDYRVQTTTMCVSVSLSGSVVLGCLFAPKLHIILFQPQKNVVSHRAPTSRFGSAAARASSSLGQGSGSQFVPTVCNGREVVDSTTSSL

Structure (SMILES)	GTPγS - hR2 PAM pEC50 (human mGluR2 receptor)	also measured
FC(F)(F)Cc1nnc2c(Cl)c(N3CCC4(CC3)COc3ccccc34)ccn12 [compound 16, 1′-[8-Chloro-3-(2,2,2-trifluoroethyl)[1,2,4]triazolo[4,3-a]pyridin-7-yl]-spiro[1-benzofuran-3,4′-piperidine]]		melting point: 269.1 °C; EC50 (human mGluR2 receptor): 178 nM
FC(F)(F)c1c(CN2CCC(F)(c3ccccc3)CC2)ccn2c(CC3CC3)nnc12 [compound 250, 3-(Cyclopropylmethyl)-7-[(4-fluoro-4-phenyl-1-piperidinyl)methyl]-8-(trifluoromethyl)-1,2,4-triazolo[4,3-a]pyridine]		ED50 ([1]; Mus musculus, read-out: Mice ED50 (mg/kg) PCP-Inh.): > 10 mg/kg
CCc1c(N2CCC(c3ccccc3)CC2)ccn2c(CC3CC3)nnc12 [compound 171, 3-Cyclopropylmethyl-8-ethyl-7-(4-phenylpiperidin-1-yl)-[1,2,4]triazolo[4,3-a]pyridine]		melting point: > 300 °C; EC50 (human mGluR2 receptor): 251 nM
FC(F)(F)c1c(N2CCN(c3ccccc3)C3(CC3)C2)ccn2c(CC3CC3)nnc12 [compound 121, 1′-[3-cyclopropylmethyl-8-(trifluoromethyl)[1,2,4]triazolo[4,3-a]pyridin-7-yl]-4-phenyl-4,7-diaza-spiro[2.5]octane]		melting point: 218.4 °C; EC50 (human mGluR2 receptor): 234 nM
CC1(c2ccccn2)CCN(c2ccn3c(CC4CC4)nnc3c2C(F)(F)F)CC1 [compound 148, 8-Trifluoromethyl-3-(cyclopropylmethyl)-7-(4-methyl-4-(2-pyridinyl)-piperidin-1-yl)-1,2,4-triazolo[4,3-a]pyridine]		melting point: > 300 °C; EC50 (human mGluR2 receptor): 363 nM
Fc1cccc(F)c1C1CCN(c2ccn3c(CC4CC4)nnc3c2Cl)CC1 [compound 300]	7.24	inhibition of PCP-induced hyperlocomotion in mice (in words) [1]: inhibited; Mice ED50 (mg/kg) PCP-Inh., estimated ED50 (footnote a) [1]: 12.6 ^a) mg/kg
CCc1nnc2c(C(F)(F)F)c(N3CCC(c4ccccc4)CC3)ccn12 [compound 66]	6.94	inhibition of PCP-induced hyperlocomotion in mice (in words) [1]: inhibited; Mice ED50 (mg/kg) PCP-Inh. [1]: 17.4 ^ mg/kg
FC(F)(F)Cc1nnc2c(Cl)c(CN3CCC(c4ccccc4)CC3)ccn12 [compound 30]	6.95	inhibition of PCP-induced hyperlocomotion in mice (in words) [1]: inhibited; Mice ED50 (mg/kg) PCP-Inh., estimated ED50 (footnote a) [1]: 5 ^a) mg/kg
N#Cc1c(N2CCN(C3CCC(C(F)(F)F)CC3)CC2)ccn2c(CC3CC3)nnc12 (stereo not shown) [compound 44]	6.02	Mice ED50 (mg/kg) PCP-Inh. [1]: >40 mg/kg
FC(F)(F)c1c(N2CCC(c3ccccc3)CC2)ccn2c(CC3CCC3)nnc12 [compound 185]	8.26	
CC(C)Cc1nnc2c(C#N)c(N3CCC(c4ccccc4)CC3)ccn12 [compound 74]	6.85	
O=C1N(c2ccc(F)cc2F)CC12CCN(c1ccn3c(CC4CC4)nnc3c1Cl)CC2 [compound 213]	6.03‡	
FC(F)(F)c1c(N2CCC(c3ccccc3)C2)ccn2c(CC3CC3)nnc12 (stereo not shown) [compound 174]	5.91‡	
CCOCc1nnc2c(Cl)c(N3CCC(c4ccccc4OC)CC3)ccn12 [compound 82]	7.51	
CCCc1nnc2c(C(F)(F)F)c(N3CCC4(CC3)OC(C)(C)c3ccccc34)ccn12 [compound 113]	7.59	
FC(F)(F)c1c(N2CC3C(C2)C3c2ccccc2)ccn2c(CC3CC3)nnc12 (racemic) [compound 75]	7.05	
COc1cccnc1C1CCN(c2ccn3c(CC4CC4)nnc3c2C(F)(F)F)CC1 [compound 91]	7.27	
CC1CN(c2ccn3c(CC4CC4)nnc3c2Cl)CCC1c1ccccc1 (single isomer, unassigned) [compound 208]	7.06	
FC(F)(F)c1c(N2CCC(Oc3cccnc3)CC2)ccn2c(CC3CC3)nnc12 [compound 167]	6.47‡	
FC(F)(F)Cc1nnc2c(Cl)c(N3CCC(c4ccccn4)CC3)ccn12 [compound 56]	6.02‡	
CCOCc1nnc2c(C(F)(F)F)c(N3CCC(Oc4ncccc4C)CC3)ccn12 [compound 134]	7.17	
FC(F)(F)CCc1nnc2c(Cl)c(N3CCC(c4ccccc4)CC3)ccn12 [compound 71]	6.65‡	
CCOCc1nnc2c(C(F)(F)F)c(N3CCC(Oc4ccccn4)CC3)ccn12 [compound 132]	6.68	

Structure (SMILES)	GTPγS - hR2 PAM pEC50 (human mGluR2 receptor)	also measured
FC(F)(F)c1cc(CN2CCN(c3ccn4c(CC5CC5)nnc4c3Cl)CC2)cc(C(F)(F)F)c1 [compound 304]	6.12	
N#Cc1c(N2CCN(Cc3ccc(OCC4CC4)c(Cl)c3)CC2)ccn2c(CC(F)(F)F)nnc12 [compound 52]	6.98‡	
FC(F)(F)c1c(N2CCC(F)(c3ccccc3)CC2)ccn2c(COCC3CC3)nnc12 [compound 80]	7.27	
N#Cc1c(N2CCC(F)(c3ccccc3)CC2)ccn2c(CC3CC3)nnc12 [compound 40]	6.67	
Fc1ccccc1C1CCN(c2ccn3c(CC4CC4)nnc3c2C(F)(F)F)CC1 [compound 274]	7.83‡	
FC(F)(F)Cc1nnc2c(Cl)c(N3CCN(c4ncccn4)CC3)ccn12 [compound 63]	6.08	
FC(F)(F)c1c(N2CCC(Nc3ccccc3)CC2)ccn2c(CC3CC3)nnc12 [compound 175]	6.33	
Clc1c(N2CCC3(CC2)COc2cccnc23)ccn2c(CC3CC3)nnc12 [compound 161]	5.68‡	
Fc1ccc(CN2CCN(c3ccn4c(CC5CC5)nnc4c3Cl)CC2)c(F)c1 [compound 215]	5.6‡	
COc1cccc(F)c1C1CCN(c2ccn3c(CC4CC4)nnc3c2C#N)CC1 [compound 57]	8.16‡	
CCCc1nnc2c(C(F)(F)F)c(N3CCC4(CC3)COc3ccccc34)ccn12 [compound 87]	6.94	
FC(F)(F)c1c(N2Cc3ccccc3C2)ccn2c(CC3CC3)nnc12 [compound 130]	6.4	
FC(F)(F)c1c(N2CCC(c3ccccn3)CC2)ccn2c(CC3CC3)nnc12 [compound 78]	6.83	Mice ED50 (mg/kg) PCP-Inh. [1]: ≥10^ mg/kg
Fc1cc(CN2CCN(c3ccn4c(CC5CC5)nnc4c3Cl)CC2)cc(C(F)(F)F)c1 [compound 280]	5.95‡	
CC1CN(c2ccn3c(CC4CC4)nnc3c2Cl)CCC1c1ccccc1 (single isomer, unassigned) [compound 211]	7.44	
FC(F)(F)Cc1nnc2c(Cl)c(N3CCC(c4ccccc4)CC3)ccn12 [compound 22]	7.26	
CC1(c2cccc(F)c2)CCN(c2ccn3c(CC4CC4)nnc3c2C(F)(F)F)CC1 [compound 197]	7.82‡	
Fc1ccc(N2CCN(c3ccn4c(CC5CC5)nnc4c3C(F)(F)F)CC2)nc1 [compound 360]	6.44‡	
N#Cc1c(N2CCC(c3ccccc3)CC2)ccn2c(-c3ccccc3)nnc12 [compound 205]	6.61‡	
N#Cc1c(N2CCN(C3CCC(C(F)(F)F)CC3)CC2)ccn2c(CC(F)(F)F)nnc12 (stereo not shown) [compound 58]	6.23	
CC1(c2ccc(F)cc2)CCN(c2ccn3c(CC4CC4)nnc3c2C(F)(F)F)CC1 [compound 194]	7.69	
COc1cccc(F)c1C1CCN(c2ccn3c(CC(F)(F)F)nnc3c2Cl)CC1 [compound 65]	8.41	
FC1(c2ccccc2)CCN(c2ccn3c(CC4CC4)nnc3c2Cl)CC1 [compound 42]	6.83	
